In ChEMBL document CHEMBL1201862, “PubChem BioAssay data set” (2004):
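Each compound was tested at five concentrations against cells in 96-well plates for 48 hours. Abbreviation: GI50, concentration required for 50% inhibition of growth.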 The source made the active and inactive calls. No stated cut-off is given here; in the data, active = GI50 up to about 1.1 µM and inactive = higher.

What was measured:
Assay in all cases: DTP human tumour cell line panel, 48 h
SK-MEL-2 = system: SK-MEL-2
NCI/ADR-RES = system: NCI/ADR-RES
TK-10 = system: TK-10
U-251 = system: U-251
SN12C = system: SN12C
SNB-19 = system: SNB-19
MDA-MB-435 = system: MDA-MB-435
HL-60 = system: HL-60
MDA-N = system: MDA-N
LOX IMVI = system: LOX IMVI
SF-295 = system: SF-295
OVCAR-4 = system: OVCAR-4
OVCAR-3 = system: OVCAR-3
OVCAR-5 = system: OVCAR-5
BT-549 = system: BT-549
CAKI-1 = system: CAKI-1
SK-MEL-5 = system: SK-MEL-5
ACHN = system: ACHN
A549 = system: A549
PC-3 = system: PC-3
Hs-578T = system: Hs-578T
SNB-75 = system: SNB-75
RPMI-8226 = system: RPMI-8226
NCI-H522 = system: NCI-H522
CCRF-CEM = system: CCRF-CEM
KM12 = system: KM12
HCT-116 = system: HCT-116
A498 = system: A498
SR = system: SR
SF-268 = system: SF-268
SW-620 = system: SW-620
UO-31 = system: UO-31
HOP-62 = system: HOP-62
EKVX = system: EKVX
NCI-H23 = system: NCI-H23
T47D = system: T47D
SK-MEL-28 = system: SK-MEL-28
COLO 205 = system: COLO 205
MCF7 = system: MCF7
IGROV-1 = system: IGROV-1
786-0 = system: 786-0
MDA-MB-231 = system: MDA-MB-231
DU-145 = system: DU-145
UACC-62 = system: UACC-62
MOLT-4 = system: MOLT-4
K562 = system: K562
OVCAR-8 = system: OVCAR-8
SK-OV-3 = system: SK-OV-3
Malme-3M = system: Malme-3M
HOP-92 = system: HOP-92
SF-539 = system: SF-539
HT-29 = system: HT-29
NCI-H460 = system: NCI-H460
M14 = system: M14
HCT-15 = system: HCT-15
HCC 2998 = system: HCC 2998
UACC-257 = system: UACC-257
NCI-H226 = system: NCI-H226
RXF 393 = system: RXF 393

SMILES: O=C(c1ccccc1)N1CCN(C(=S)N(C(=O)c2ccccc2)c2ccccc2)C1=S
- GI50 (SK-MEL-2): 7.41 µM (inactive)
- GI50 (NCI/ADR-RES): 5.16 µM (inactive)
- GI50 (TK-10): 5.83 µM (inactive)
- GI50 (U-251): 6.79 µM (inactive)
- GI50 (SN12C): 3.18 µM (inactive)
- GI50 (SNB-19): 13.3 µM (inactive)
- GI50 (MDA-MB-435): 3.84 µM (inactive)
- GI50 (HL-60): 2.25 µM (inactive)
- GI50 (MDA-N): 4.18 µM (inactive)
- GI50 (LOX IMVI): 1.9 µM (inactive)
- GI50 (SF-295): 12.6 µM (inactive)
- GI50 (OVCAR-4): 4.6 µM (inactive)
- GI50 (OVCAR-3): 4.21 µM (inactive)
- GI50 (OVCAR-5): 15.9 µM (inactive)
- GI50 (BT-549): 3.85 µM (inactive)
- GI50 (CAKI-1): 2.47 µM (inactive)
- GI50 (SK-MEL-5): 13.5 µM (inactive)
- GI50 (ACHN): 2.79 µM (inactive)
- GI50 (A549): 5.26 µM (inactive)
- GI50 (PC-3): 6.59 µM (inactive)
- GI50 (Hs-578T): 3.1 µM (inactive)
- GI50 (SNB-75): 2.16 µM (inactive)
- GI50 (RPMI-8226): 0.914 µM (active)
- GI50 (NCI-H522): 1.87 µM (inactive)
- GI50 (CCRF-CEM): 2.56 µM (inactive)
- GI50 (KM12): 5.71 µM (inactive)
- GI50 (HCT-116): 3.4 µM (inactive)
- GI50 (A498): 4.02 µM (inactive)
- GI50 (SR): 2.07 µM (inactive)
- GI50 (SF-268): 3.45 µM (inactive)
- GI50 (SW-620): 3.31 µM (inactive)
- GI50 (UO-31): 2.56 µM (inactive)
- GI50 (HOP-62): 10.3 µM (inactive)
- GI50 (EKVX): 5.92 µM (inactive)
- GI50 (NCI-H23): 3.05 µM (inactive)
- GI50 (T47D): 4.68 µM (inactive)
- GI50 (SK-MEL-28): 3.27 µM (inactive)
- GI50 (COLO 205): 3.28 µM (inactive)
- GI50 (MCF7): 3.13 µM (inactive)
- GI50 (IGROV-1): 3.52 µM (inactive)
- GI50 (786-0): 2.09 µM (inactive)
- GI50 (MDA-MB-231): 10.3 µM (inactive)
- GI50 (DU-145): 3.01 µM (inactive)
- GI50 (UACC-62): 3.76 µM (inactive)
- GI50 (MOLT-4): 1.89 µM (inactive)
- GI50 (K562): 2.41 µM (inactive)
- GI50 (OVCAR-8): 3.13 µM (inactive)
- GI50 (SK-OV-3): 15.5 µM (inactive)
- GI50 (Malme-3M): 5.13 µM (inactive)
- GI50 (HOP-92): 6.37 µM (inactive)
- GI50 (SF-539): 2.62 µM (inactive)
- GI50 (HT-29): 5.42 µM (inactive)
- GI50 (NCI-H460): 17.5 µM (inactive)
- GI50 (M14): 3.17 µM (inactive)
- GI50 (HCT-15): 2.18 µM
- GI50 (HCC 2998): 6.5 µM (inactive)
- GI50 (UACC-257): 8.49 µM (inactive)
- GI50 (NCI-H226): 10.7 µM (inactive)

SMILES: C=C(C)C1CC2(C)C(C)CC(OC(=O)/C(C)=C\C)CC2C(OC(=O)/C(C)=C\C)C1O (stereo not given)
- GI50 (SK-MEL-2): > 100 µM (inactive)
- GI50 (NCI/ADR-RES): > 100 µM (inactive)
- GI50 (TK-10): > 100 µM (inactive)
- GI50 (U-251): 75.5 µM (inactive)
- GI50 (SN12C): 62.2 µM (inactive)
- GI50 (SNB-19): 25.1 µM (inactive)
- GI50 (MDA-MB-435): 55.3 µM (inactive)
- GI50 (HL-60): 21.4 µM (inactive)
- GI50 (MDA-N): 55.8 µM (inactive)
- GI50 (LOX IMVI): 38.6 µM (inactive)
- GI50 (OVCAR-4): > 100 µM (inactive)
- GI50 (OVCAR-5): > 100 µM (inactive)
- GI50 (BT-549): 62.1 µM (inactive)
- GI50 (CAKI-1): 80.7 µM (inactive)
- GI50 (SK-MEL-5): 15.6 µM (inactive)
- GI50 (ACHN): 32.9 µM (inactive)
- GI50 (A549): 39.5 µM (inactive)
- GI50 (PC-3): 46.6 µM (inactive)
- GI50 (Hs-578T): 34.7 µM (inactive)
- GI50 (SNB-75): 22 µM (inactive)
- GI50 (NCI-H522): 32.7 µM (inactive)
- GI50 (CCRF-CEM): 20.8 µM (inactive)
- GI50 (KM12): 38.6 µM (inactive)
- GI50 (HCT-116): 56.1 µM (inactive)
- GI50 (A498): > 100 µM (inactive)
- GI50 (SR): 19.8 µM (inactive)
- GI50 (SF-268): 66.4 µM (inactive)
- GI50 (SW-620): 61 µM (inactive)
- GI50 (UO-31): 39.8 µM (inactive)
- GI50 (EKVX): 67 µM (inactive)
- GI50 (NCI-H23): 61.9 µM (inactive)
- GI50 (T47D): 43.2 µM (inactive)
- GI50 (SK-MEL-28): > 100 µM (inactive)
- GI50 (COLO 205): 22.1 µM (inactive)
- GI50 (MCF7): 41.2 µM (inactive)
- GI50 (IGROV-1): 66.2 µM (inactive)
- GI50 (786-0): > 100 µM (inactive)
- GI50 (MDA-MB-231): > 100 µM (inactive)
- GI50 (DU-145): 66.8 µM (inactive)
- GI50 (UACC-62): 84.5 µM (inactive)
- GI50 (MOLT-4): 25.1 µM (inactive)
- GI50 (K562): > 10 µM (inactive)
- GI50 (OVCAR-8): > 100 µM (inactive)
- GI50 (SK-OV-3): > 100 µM (inactive)
- GI50 (Malme-3M): > 100 µM (inactive)
- GI50 (HOP-92): 51.2 µM (inactive)
- GI50 (SF-539): > 100 µM (inactive)
- GI50 (HT-29): 35.8 µM (inactive)
- GI50 (NCI-H460): 45.1 µM (inactive)
- GI50 (M14): > 100 µM (inactive)
- GI50 (HCT-15): 42 µM
- GI50 (HCC 2998): > 100 µM (inactive)
- GI50 (UACC-257): 89.1 µM (inactive)
- GI50 (NCI-H226): > 100 µM (inactive)

SMILES: COC/C=C\[C@@]1(O)CCCC[C@@H]1CC(OC)OC
- GI50 (SK-MEL-2): > 100 µM (inactive)
- GI50 (NCI/ADR-RES): 38.2 µM (inactive)
- GI50 (TK-10): > 100 µM (inactive)
- GI50 (RXF 393): > 54.3 µM (inactive)
- GI50 (U-251): 31.8 µM (inactive)
- GI50 (SN12C): 17.5 µM (inactive)
- GI50 (SNB-19): 43.6 µM (inactive)
- GI50 (MDA-MB-435): 28.3 µM (inactive)
- GI50 (HL-60): 6.98 µM (inactive)
- GI50 (MDA-N): 33.7 µM (inactive)
- GI50 (LOX IMVI): 7.03 µM (inactive)
- GI50 (SF-295): 43.4 µM (inactive)
- GI50 (OVCAR-4): 31.8 µM (inactive)
- GI50 (OVCAR-3): 54.5 µM (inactive)
- GI50 (OVCAR-5): > 100 µM (inactive)
- GI50 (BT-549): 64 µM (inactive)
- GI50 (CAKI-1): > 100 µM (inactive)
- GI50 (SK-MEL-5): > 94.2 µM (inactive)
- GI50 (ACHN): 10.1 µM (inactive)
- GI50 (A549): 68.7 µM (inactive)
- GI50 (PC-3): 49.5 µM (inactive)
- GI50 (Hs-578T): 37.2 µM (inactive)
- GI50 (SNB-75): 60 µM (inactive)
- GI50 (RPMI-8226): 22.8 µM (inactive)
- GI50 (NCI-H522): 17.5 µM (inactive)
- GI50 (CCRF-CEM): 19.2 µM (inactive)
- GI50 (KM12): 31 µM (inactive)
- GI50 (HCT-116): 22.7 µM (inactive)
- GI50 (SR): 37.3 µM (inactive)
- GI50 (SF-268): 30.2 µM (inactive)
- GI50 (SW-620): 32.5 µM (inactive)
- GI50 (UO-31): 32.1 µM (inactive)
- GI50 (HOP-62): 36.2 µM (inactive)
- GI50 (EKVX): > 100 µM (inactive)
- GI50 (NCI-H23): 39.6 µM (inactive)
- GI50 (T47D): 34.1 µM (inactive)
- GI50 (SK-MEL-28): 37.4 µM (inactive)
- GI50 (COLO 205): > 95.5 µM (inactive)
- GI50 (MCF7): 2.75 µM (inactive)
- GI50 (IGROV-1): 32.5 µM (inactive)
- GI50 (786-0): 30 µM (inactive)
- GI50 (MDA-MB-231): > 100 µM (inactive)
- GI50 (DU-145): 38.5 µM (inactive)
- GI50 (UACC-62): 11.7 µM (inactive)
- GI50 (MOLT-4): 9.46 µM (inactive)
- GI50 (K562): 11.9 µM (inactive)
- GI50 (OVCAR-8): 29.9 µM (inactive)
- GI50 (SK-OV-3): > 100 µM (inactive)
- GI50 (Malme-3M): 77.4 µM (inactive)
- GI50 (HOP-92): > 100 µM (inactive)
- GI50 (SF-539): 48.5 µM (inactive)
- GI50 (HT-29): > 59.6 µM (inactive)
- GI50 (NCI-H460): 33.3 µM (inactive)
- GI50 (M14): 46.7 µM (inactive)
- GI50 (HCT-15): 27.4 µM
- GI50 (HCC 2998): > 100 µM (inactive)
- GI50 (UACC-257): > 100 µM (inactive)
- GI50 (NCI-H226): > 59.2 µM (inactive)
